Measured values: US9676760B2, “Fused heterocyclic compounds as ion channel modulators” (Gilead Sciences, Inc., priority 2011, dated 2017)

These compounds were tested against wild-type human cardiac sodium channel, hNav1.5 (Homo sapiens, UniProt Q14524) (assay: Late INa screening assay (QPatch whole cell patch clamp, HEK293)). Conditions: HEK293, percent block of late INa; compound at 1 μM; 10 μM Tefluthrin; read-out: Late INa 1 μM.
Format: cell-based
Procedure: The late sodium current (Late INa) and peak sodium current (Peak INa) assays are performed on an automated electrophysiology platform, QPatch 16× (Sophion Bioscience, Copenhagen, Denmark), which uses the whole cell patch clamp technique to measure currents through the cell membrane of up to 16 cells at a time. The assay uses an HEK293 (human embryonic kidney) cell line heterologously expressing the wild-type human cardiac sodium channel, hNav1.5, purchased from Millipore (Billerica, Mass.). No beta subunits were coexpressed with the Na channel alpha subunit. Cells are maintained with standard tissue culture procedures and stable channel expression is maintained with 400 μg/mL Geneticin in the culture medium. Cells isolated for use on QPatch are incubated for 5 minutes in Detachin 1×(Genlantis, San Diego, USA) at 37° C. to ensure that 80-90% of the cells are single and not part of a cell cluster. Experiments are carried out at 23-25° C.
For both the Late INa and Peak INa assays, series resistance compensation is set to 100% and series resistance and whole-cell compensation are performed automatically. Currents are digitized at 25 kHz and low-pass filtered at 12 kHz and 10 kHz for the late and peak INa assays, respectively. Currents through open sodium channels are automatically recorded and stored in the Sophion Bioscience Oracle database (Sophion Bioscience, Copenhagen, Denmark). Analysis is performed using QPatch Assay and database software and data are compiled in Excel.
Compound stocks are routinely made by the Gilead Sample Bank in plastic vials to 10 mM in dimethyl sulfoxide (DMSO). In some cases, when compounds are not soluble in DMSO, they are made in 100% ethanol. Stocks are sonicated as necessary. The extracellular solution for screening Late INa is composed of: 140 mM NaCl, 4 mM KCl, 1.8 mM CaCl2, 0.75 mM MgCl2 and 5 mM HEPES with pH adjusted to 7.4 using NaOH. The intracellular solution used to perfuse the inside of the cells for both the Late INa and Peak INa assays contains: 120 mM CsF, 20 mM CsCl, 5 mM EGTA, 5 mM HEPES and pH adjusted to 7.4 with CsOH. Compounds are diluted in extracellular solution to 1 μM in glass vials and then transferred to glass well plates before robotic addition to the cells. The 0 mM Na extracellular solution (0Na-ECF) used at the end of each experiment for the Late INa and Peak INa assays to measure baseline current contains: 140 mM N-methyl-D-glucamine; 4 mM KCl; 1.8 mM CaCl2; 0.75 mM MgCl2; 5 mM HEPES and pH was adjusted to 7.4 with HCl.
For the Late INa assay, sodium channels are activated every 10 seconds (0.1 Hz) by depolarizing the cell membrane to −20 mV for 250 milliseconds (ms) from a holding potential of −120 mV. In response to a −20 mV voltage step, typical hNav1.5 sodium currents activate rapidly to a peak negative current and then inactivate nearly completely within 3-4 ms.
Compounds were tested to determine their activity in blocking the late sodium current. Late INa was generated by adding 10 μM Tefluthrin (pyrethroid) to the extracellular solution while recording Na currents. […] ATX-II and tefluthrin occupy distinct, non-overlapping binding sites and modify Na^+ channel function differently to increase late INa. […] After establishing the whole cell recording configuration, late INa activator is added to each well 4 times over a 16-17 minute period so that the late component of the Na current reaches a stable value.
Results are reported as percent block of late INa.

wild-type human cardiac sodium channel, hNav1.5, sequence (Q14524 whole entry): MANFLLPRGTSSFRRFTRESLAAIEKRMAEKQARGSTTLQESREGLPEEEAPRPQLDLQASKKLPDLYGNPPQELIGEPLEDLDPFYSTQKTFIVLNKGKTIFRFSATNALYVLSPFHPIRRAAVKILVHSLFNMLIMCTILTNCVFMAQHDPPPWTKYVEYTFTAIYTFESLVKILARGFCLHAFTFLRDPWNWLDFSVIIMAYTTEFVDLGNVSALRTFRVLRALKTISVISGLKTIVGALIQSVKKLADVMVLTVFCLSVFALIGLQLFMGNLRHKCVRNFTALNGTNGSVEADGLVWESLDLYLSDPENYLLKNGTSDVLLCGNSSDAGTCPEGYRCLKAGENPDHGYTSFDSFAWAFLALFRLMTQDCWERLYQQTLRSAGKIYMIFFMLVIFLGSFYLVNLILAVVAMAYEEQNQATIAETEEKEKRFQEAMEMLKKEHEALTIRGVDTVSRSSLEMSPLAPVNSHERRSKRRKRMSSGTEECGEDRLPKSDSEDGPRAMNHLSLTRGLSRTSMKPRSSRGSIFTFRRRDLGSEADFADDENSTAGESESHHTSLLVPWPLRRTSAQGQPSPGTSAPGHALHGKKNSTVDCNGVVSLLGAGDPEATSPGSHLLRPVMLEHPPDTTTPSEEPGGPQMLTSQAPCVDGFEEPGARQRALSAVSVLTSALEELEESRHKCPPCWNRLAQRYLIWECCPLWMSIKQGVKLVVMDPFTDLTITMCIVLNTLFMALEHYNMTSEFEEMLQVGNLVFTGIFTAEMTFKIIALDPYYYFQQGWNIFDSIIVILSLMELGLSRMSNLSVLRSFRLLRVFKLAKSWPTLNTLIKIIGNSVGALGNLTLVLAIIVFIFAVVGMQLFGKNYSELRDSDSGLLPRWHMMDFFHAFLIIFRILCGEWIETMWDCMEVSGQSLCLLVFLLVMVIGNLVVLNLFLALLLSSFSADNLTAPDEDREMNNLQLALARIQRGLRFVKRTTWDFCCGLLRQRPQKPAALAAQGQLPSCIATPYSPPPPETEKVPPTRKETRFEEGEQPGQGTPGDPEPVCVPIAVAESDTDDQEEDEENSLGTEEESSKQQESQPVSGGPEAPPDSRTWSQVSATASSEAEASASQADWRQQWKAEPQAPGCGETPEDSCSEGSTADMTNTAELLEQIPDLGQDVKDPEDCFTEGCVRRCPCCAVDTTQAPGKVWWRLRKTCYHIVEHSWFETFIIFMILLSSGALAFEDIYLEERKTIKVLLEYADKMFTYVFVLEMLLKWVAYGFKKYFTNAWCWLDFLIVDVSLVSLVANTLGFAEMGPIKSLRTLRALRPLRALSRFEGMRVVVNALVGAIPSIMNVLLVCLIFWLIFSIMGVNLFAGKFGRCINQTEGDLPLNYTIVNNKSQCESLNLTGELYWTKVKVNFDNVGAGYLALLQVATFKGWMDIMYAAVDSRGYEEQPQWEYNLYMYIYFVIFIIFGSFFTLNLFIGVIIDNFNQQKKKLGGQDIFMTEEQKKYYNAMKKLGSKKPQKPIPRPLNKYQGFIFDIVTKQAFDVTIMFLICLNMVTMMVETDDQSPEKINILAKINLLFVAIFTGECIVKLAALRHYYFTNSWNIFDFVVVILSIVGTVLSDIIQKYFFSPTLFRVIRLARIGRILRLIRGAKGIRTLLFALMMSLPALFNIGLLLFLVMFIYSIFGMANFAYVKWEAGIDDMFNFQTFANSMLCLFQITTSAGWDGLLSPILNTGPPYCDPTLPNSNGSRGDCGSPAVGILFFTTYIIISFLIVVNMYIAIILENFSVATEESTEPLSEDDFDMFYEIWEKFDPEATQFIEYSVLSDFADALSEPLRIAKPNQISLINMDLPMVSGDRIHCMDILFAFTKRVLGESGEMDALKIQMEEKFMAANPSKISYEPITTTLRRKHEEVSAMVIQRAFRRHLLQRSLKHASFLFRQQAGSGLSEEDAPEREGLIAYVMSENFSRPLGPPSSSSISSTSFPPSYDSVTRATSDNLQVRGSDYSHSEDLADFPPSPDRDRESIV

Row | SMILES | inhibition at 1 µM
1 | O=C1c2cc(-c3ccc(OCC(F)(F)F)cc3)ccc2OCCN1Cc1ncccn1 [II-107, 4-(pyrimidin-2-ylmethyl)-7-(4-(2,2,2-trifluoroethoxy)phenyl)-3,4-dihydrobenzo[f][1,4]oxazepin-5(2H)-one] | 18%
2 | O=C1c2cc(-c3ccc(OC(F)(F)F)cc3)ccc2OCCN1Cc1nccc(C(F)(F)F)n1 [II-113, 7-(4-(trifluoromethoxy)phenyl)-4-((4-(trifluoromethyl)pyrimidin-2-yl)methyl)-3,4-dihydrobenzo[f][1,4]oxazepin-5(2H)-one] | 27%
3 | O=C1c2cc(-c3ccc(OC(F)(F)F)cc3)ccc2OCCN1Cc1ncc(-c2ccc(C(F)(F)F)nc2)cn1 [II-115, 7-(4-(trifluoromethoxy)phenyl)-4-((5-(6-(trifluoromethyl)pyridin-3-yl)pyrimidin-2-yl)methyl)-3,4-dihydrobenzo[f][1,4]oxazepin-5(2H)-one] | 21%
4 | N#CC1(c2ccc(-c3ccc4c(c3)C(=O)N(Cc3ncccn3)CCO4)cc2)CCCC1 [II-122, 1-(4-(5-oxo-4-(pyrimidin-2-ylmethyl)-2,3,4,5-tetrahydrobenzo[f][1,4]oxazepin-7-yl)phenyl)cyclopentanecarbonitrile] | 19%
5 | CCOc1ccc(-c2ccc3c(c2)C(=O)N(Cc2ncccn2)CCO3)cc1 [II-123, 7-(4-ethoxyphenyl)-4-(pyrimidin-2-ylmethyl)-3,4-dihydrobenzo[f][1,4]oxazepin-5(2H)-one] | 21%
6 | O=C1c2cc(-c3ccc(C(F)F)cc3)ccc2OCCN1Cc1ncccn1 [II-124, 7-(4-(difluoromethyl)phenyl)-4-(pyrimidin-2-ylmethyl)-3,4-dihydrobenzo[f][1,4]oxazepin-5(2H)-one] | 17%
7 | O=C1c2cc(-c3ccc(OC(F)(F)F)cc3)ccc2OCCN1Cc1nccc(N2CCOCC2)n1 [II-133] | 23%
8 | O=C1c2cc(-c3ccc(C(F)(F)F)c(F)c3)ccc2OCCN1Cc1ncccn1 [II-136, 7-(3-fluoro-4-(trifluoromethyl)phenyl)-4-(pyrimidin-2-ylmethyl)-3,4-dihydrobenzo[f][1,4]oxazepin-5(2H)-one] | 30%
9 | O=C1c2cc(-c3ccc(OC(F)(F)F)cc3)ccc2OCCN1Cc1nccc(N2CCCCC2)n1 [II-139, 4-((4-(piperidin-1-yl)pyrimidin-2-yl)methyl)-7-(4-(trifluoromethoxy)phenyl)-3,4-dihydrobenzo[f][1,4]oxazepin-5(2H)-one] | 31%
10 | CN(C)c1ccnc(CN2CCOc3ccc(-c4ccc(OC(F)(F)F)cc4)cc3C2=O)n1 [II-140, 4-((4-(dimethylamino)pyrimidin-2-yl)methyl)-7-(4-(trifluoromethoxy)phenyl)-3,4-dihydrobenzo[f][1,4]oxazepin-5(2H)-one] | 32%
11 | O=C1NC(Cc2ccccn2)COc2ccc(-c3ccc(OC(F)(F)F)cc3)cc21 (stereo not drawn) [II-142, 3-(pyridin-2-ylmethyl)-7-(4-(trifluoromethoxy)phenyl)-3,4-dihydrobenzo[f][1,4]oxazepin-5(2H)-one] | 19%
12 | Cc1cc(C(F)(F)F)ccc1-c1ccc2c(c1)C(=O)N(Cc1ncccn1)CCO2 [II-145, 7-(2-methyl-4-(trifluoromethyl)phenyl)-4-(pyrimidin-2-ylmethyl)-3,4-dihydrobenzo[f][1,4]oxazepin-5(2H)-one] | 19%
13 | Cc1cc(OC(F)(F)F)ccc1-c1ccc2c(c1)C(=O)N(Cc1ncccn1)CCO2 [II-146, 7-(2-methyl-4-(trifluoromethoxy)phenyl)-4-(pyrimidin-2-ylmethyl)-3,4-dihydrobenzo[f][1,4]oxazepin-5(2H)-one] | 36%
14 | O=C1c2cc(-c3ccc(OC(F)(F)F)cc3)ccc2OCCN1Cn1ccc(C(F)(F)F)n1 [II-148, 7-(4-(trifluoromethoxy)phenyl)-4-((3-(trifluoromethyl)-1H-pyrazol-1-yl)methyl)-3,4-dihydrobenzo[f][1,4]oxazepin-5(2H)-one] | 17%
15 | O=C1c2cc(-c3ccc(CC(F)(F)F)cc3)ccc2OCCN1Cc1ncccn1 [II-150, 4-(pyrimidin-2-ylmethyl)-7-(4-(2,2,2-trifluoroethyl)phenyl)-3,4-dihydrobenzo[f][1,4]oxazepin-5(2H)-one] | 27%
16 | O=C1c2cc(-c3ccc(OC(F)(F)F)cc3)ccc2OCCN1Cc1ccn(C2CCCC2)n1 [II-152, 4-((1-cyclopentyl-1H-pyrazol-3-yl)methyl)-7-(4-(trifluoromethoxy)phenyl)-3,4-dihydrobenzo[f][1,4]oxazepin-5(2H)-one] | 23%
17 | Cn1cnc(CN2CCOc3ccc(-c4ccc(OC(F)(F)F)cc4)cc3C2=O)c1 [II-154, 4-((1-methyl-1H-imidazol-4-yl)methyl)-7-(4-(trifluoromethoxy)phenyl)-3,4-dihydrobenzo[f][1,4]oxazepin-5(2H)-one] | 25%
18 | O=C1c2cc(-c3ccc(OC(F)F)cc3)ccc2OCCN1Cc1ccccn1 [II-159, 7-(4-(difluoromethoxy)phenyl)-4-(pyridin-2-ylmethyl)-3,4-dihydrobenzo[f][1,4]oxazepin-5(2H)-one] | 28%
19 | Cn1cc(CN2CCOc3ccc(-c4ccc(OC(F)(F)F)cc4)cc3C2=O)cn1 [II-160, 4-((1-methyl-1H-pyrazol-4-yl)methyl)-7-(4-(trifluoromethoxy)phenyl)-3,4-dihydrobenzo[f][1,4]oxazepin-5(2H)-one] | 48%
20 | O=C1c2cc(-c3ccc(F)c(F)c3F)ccc2OCCN1Cc1ncccn1 [II-162, 4-(pyrimidin-2-ylmethyl)-7-(2,3,4-trifluorophenyl)-3,4-dihydrobenzo[f][1,4]oxazepin-5(2H)-one] | 20%
21 | O=C1c2cc(-c3ccc(F)c(F)c3)ccc2OCCN1Cc1ncccn1 [II-163, 7-(3,4-difluorophenyl)-4-(pyrimidin-2-ylmethyl)-3,4-dihydrobenzo[f][1,4]oxazepin-5 (2H)-one] | 28%
22 | O=C1c2cc(-c3ccc(OC(F)(F)F)cc3)ccc2OCCN1Cc1ncccc1F [II-164, 4-((3-fluoropyridin-2-yl)methyl)-7-(4-(trifluoromethoxy)phenyl)-3,4-dihydrobenzo[f][1,4]oxazepin-5(2H)-one] | 75%
23 | O=C1c2cc(-c3ccc(OS(=O)(=O)C(F)(F)F)cc3)ccc2OCCN1Cc1ncccn1 [II-171, 4-(5-oxo-4-(pyrimidin-2-ylmethyl)-2,3,4,5-tetrahydrobenzo[f][1,4]oxazepin-7-yl)phenyl trifluoromethanesulfonate] | 24%
24 | Cc1cnc(CN2CCOc3ccc(-c4ccc(OC(F)(F)F)cc4)cc3C2=O)cn1 [II-172, 4-((5-methylpyrazin-2-yl)methyl)-7-(4-(trifluoromethoxy)phenyl)-3,4-dihydrobenzo[f][1,4]oxazepin-5(2H)-one] | 33%
25 | [2H]C1([2H])Oc2ccc(-c3ccc(OC(F)(F)F)cc3)cc2C(=O)N(Cc2ncccn2)C1([2H])[2H] [II-174, 2,2,3,3-tetradeutero-4-(pyrimidin-2-ylmethyl)-7-(4-(trifluoromethoxy)phenyl)-3,4-dihydrobenzo[f][1,4]oxazepin-5(2H)-one] | 48%
26 | O=C1c2cc(-c3ccc(OC(F)(F)F)cc3)ccc2OCCN1CCNS(=O)(=O)c1ccccc1 [II-177, N-(2-(5-oxo-7-(4-(trifluoromethoxy)phenyl)-2,3-dihydrobenzo[f][1,4]oxazepin-4(5H)-yl)ethyl)benzenesulfonamide] | 22%

Same assay, conditions: percent block of late INa; compound at 1 μM; 10 μM Tefluthrin

Row | SMILES | Late INa 1 μM
27 | O=C1c2cc(-c3ccc(C(F)(F)F)cc3)ccc2OCCN1Cc1cn2ccccc2n1 [II-135, 4-(imidazo[1,2-a]pyridin-2-ylmethyl)-7-(4-(trifluoromethyl)phenyl)-3,4-dihydrobenzo[f][1,4]oxazepin-5(2H)-one] | 32%
